Results as given in ChEMBL document CHEMBL1124752, “Cyclobut-A and cyclobut-G: broad-spectrum antiviral agents with potential utility for the therapy of AIDS” (J Med Chem, 1990).
Converted amounts (≈) assume the structure as drawn.

How the values were obtained:
[1] = system: Human immunodeficiency virus 1; experiment: Tested for the determination of percentage protection at 10 uM concentrations against HIV-1 in ATH8 Cells; assay type: functional
[2] = system: Human immunodeficiency virus 1; experiment: Tested for the determination of percentage protection at 100 uM concentrations against HIV-1 in ATH8 Cells; assay type: functional
[3] = system: Human immunodeficiency virus 1; experiment: Tested for the determination of percentage protection at 2 uM concentrations against HIV-1 in ATH8 Cells; assay type: functional
[4] = system: Human immunodeficiency virus 1; experiment: Tested for the determination of percentage protection at 200 uM concentrations against HIV-1 in ATH8 Cells; assay type: functional
[5] = system: Human immunodeficiency virus 1; experiment: Tested for the determination of percentage toxicity at 200 uM concentrations against HIV-1 in ATH8 Cells; assay type: functional
[6] = system: Human immunodeficiency virus 1; experiment: Tested for the determination of percentage toxicity at 10 uM concentrations against HIV-1 in ATH8 Cells; assay type: functional
[7] = system: Human immunodeficiency virus 1; experiment: Tested for the determination of percentage toxicity at 100 uM concentrations against HIV-1 in ATH8 Cells; assay type: functional
[8] = system: Human immunodeficiency virus 1; experiment: Tested for the determination of percentage protection at 100 uM against HIV-1 in ATH8 cells; assay type: functional, ATH-8
[9] = system: Human immunodeficiency virus 1; experiment: Tested for the determination of percentage protection at 10 uM against HIV-1 in ATH8 cells; assay type: functional, ATH-8
[10] = system: Human immunodeficiency virus 1; experiment: Tested for the determination of percentage protection at 1 uM against HIV-1 in ATH8 cells; assay type: functional, ATH-8
[11] = system: Human immunodeficiency virus 1; experiment: Tested for the determination of percentage protection at 50 uM against HIV-1 in ATH8 cells; assay type: functional, ATH-8
[12] = system: Human betaherpesvirus 5; experiment: In vitro antiviral activity tested against herpesvirus, HCMV, EC strain by plaque reduction assay in human foreskin fibroblasts; assay type: functional
[13] = system: Human betaherpesvirus 5; experiment: In vitro antiviral activity tested against herpesvirus, HCMV, LA strain by plaque reduction assay in human foreskin fibroblasts; assay type: functional
[14] = system: Human betaherpesvirus 5; experiment: In vitro antiviral activity tested against herpesvirus, HCMV, AD169 strain by plaque reduction assay in human foreskin fibroblasts; assay type: functional
[15] = system: Human betaherpesvirus 5; experiment: In vitro antiviral activity tested against herpesvirus, HCMV, Davis strain by plaque reduction assay in human foreskin fibroblasts; assay type: functional
[16] = system: Human immunodeficiency virus 1; experiment: Tested for the determination of percentage toxicity at 1 uM against HIV-1 in ATH8 cells; assay type: organism-based; details: human immunodeficiency virus 1, ath-8, 1 µM
[17] = system: Human immunodeficiency virus 1; experiment: Tested for the determination of percentage toxicity at 50 uM against HIV-1 in ATH8 cells; assay type: organism-based; details: human immunodeficiency virus 1, ath-8, 50 µM
[18] = system: Human alphaherpesvirus 1; experiment: In vitro antiviral activity tested against herpesvirus, HSV-1, E-377 strain by plaque reduction assay in human foreskin fibroblasts; assay type: functional
[19] = system: Human alphaherpesvirus 1; experiment: Tested for mean day to death of nonsurvivors against HSV-1 infection in mice at 1.2 mg/kg/day; assay type: functional, herpes simplex virus
[20] = system: Human alphaherpesvirus 1; experiment: Tested for mean day to death of nonsurvivors against HSV-1 infection in mice at 4.7 mg/kg/day; assay type: functional, herpes simplex virus
[21] = system: Human alphaherpesvirus 1; experiment: Number of survivors per number of HSV-1 infected mice treated with 1.2 mg/kg/day; 4/10; assay type: functional, herpes simplex virus
[22] = system: Human alphaherpesvirus 1; experiment: Number of survivors per number of HSV-1 infected mice treated with 18.7 mg/kg/day; 10/10; assay type: functional, herpes simplex virus
[23] = system: Human alphaherpesvirus 1; experiment: Number of survivors per number of HSV-1 infected mice treated with 4.7 mg/kg/day; 7/10; assay type: functional, herpes simplex virus
[24] = system: Human immunodeficiency virus 1; experiment: Tested for the determination of percentage toxicity at 10 uM against HIV-1 in ATH8 cells; assay type: organism-based; details: human immunodeficiency virus 1, ath-8, 10 µM
[25] = system: Human alphaherpesvirus 2; experiment: Tested for the effective dose required to inhibit HSV-2 encephalitis in infected mice; assay type: functional, herpes simplex virus
[26] = system: Human alphaherpesvirus 1; experiment: Tested for the effective dose required to inhibit HSV-1 in infected mice; assay type: functional, herpes simplex virus
[27] = system: Human alphaherpesvirus 2; experiment: Tested for mean day to death of nonsurvivors against HSV-2 encephalitis in mice at 125 mg/kg/day; assay type: functional, herpes simplex virus
[28] = system: Human alphaherpesvirus 2; experiment: Tested for mean day to death of nonsurvivors against HSV-2 encephalitis in mice at 31.2 mg/kg/day; assay type: functional, herpes simplex virus
[29] = system: Human alphaherpesvirus 2; experiment: Tested for mean day to death of nonsurvivors against HSV-2 encephalitis in mice at 7.8 mg/kg/day; assay type: functional, herpes simplex virus
[30] = system: Human alphaherpesvirus 2; experiment: Number of survivors per number of HSV-2 infected mice treated with 125 mg/kg/day; 8/10; assay type: functional, herpes simplex virus
[31] = system: Human alphaherpesvirus 2; experiment: Number of survivors per number of HSV-2 infected mice treated with 31.2 mg/Kg/day; 4/10; assay type: functional, herpes simplex virus
[32] = system: Human alphaherpesvirus 2; experiment: In vitro antiviral activity tested against herpesvirus, HSV-2, HEET strain by plaque reduction assay in human foreskin fibroblasts; assay type: functional
[33] = system: Human alphaherpesvirus 2; experiment: In vitro antiviral activity tested against herpesvirus, HSV-2, JEN strain by plaque reduction assay in human foreskin fibroblasts; assay type: functional
[34] = system: Human immunodeficiency virus 1; experiment: Tested for the determination of percentage toxicity at 100 uM against HIV-1 in ATH8 cells; assay type: organism-based; details: human immunodeficiency virus 1, ath-8, 100 µM
[35] = system: Human alphaherpesvirus 2; experiment: In vitro antiviral activity tested against herpesvirus, HSV-2, X-79 strain by plaque reduction assay in human foreskin fibroblasts; assay type: functional
[36] = system: Murid betaherpesvirus 1; experiment: Tested for the effective dose required to inhibit systemic MCMV in infected mice; assay type: functional
[37] = system: Murid betaherpesvirus 1; experiment: Number of survivors per number of systemic MCMV infected mice treated with 3.8 mg/kg/day; 7/15; assay type: functional
[38] = system: Murid betaherpesvirus 1; experiment: In vitro antiviral activity tested against herpesvirus, MCMV, Smith strain by plaque reduction assay in mouse embryo fibroblasts; assay type: functional
[39] = system: Murid betaherpesvirus 1; experiment: Tested for mean day to death of nonsurvivors against systemic MCMV infection in mice at 100 mg/kg/day; assay type: functional
[40] = system: Murid betaherpesvirus 1; experiment: Tested for mean day to death of nonsurvivors against systemic MCMV infection in mice at 11.2 mg/kg/day; assay type: functional
[41] = system: Murid betaherpesvirus 1; experiment: Tested for mean day to death of nonsurvivors against systemic MCMV infection in mice at 3.8 mg/kg/day; assay type: functional
[42] = system: Murid betaherpesvirus 1; experiment: Tested for mean day to death of nonsurvivors against systemic MCMV infection in mice at 33.4 mg/kg/day; assay type: functional
[43] = system: Murid betaherpesvirus 1; experiment: Number of survivors per number of systemic MCMV infected mice treated with 100 mg/kg/day; 13/15; assay type: functional
[44] = system: Murid betaherpesvirus 1; experiment: Number of survivors per number of systemic MCMV infected mice treated with 11.2 mg/kg/day; 9/15; assay type: functional
[45] = system: Raji; experiment: Tested for the inhibition of diffuse early antigen production assayed by immunofluorescent monoclonal antibody in Raji cells; assay type: functional; details: Homo sapiens
[46] = system: Human alphaherpesvirus 3; experiment: In vitro antiviral activity tested against herpesvirus, VZV, Ellen strain by plaque reduction assay in human foreskin fibroblasts; assay type: functional
[47] = system: Human alphaherpesvirus 3; experiment: In vitro antiviral activity tested against herpesvirus, VZV, OKA strain by plaque reduction assay in human foreskin fibroblasts; assay type: functional
[48] = species on record: Homo sapiens; experiment: The drug concentration was determined to reduce proliferation of human foreskin fibroblasts to 50% of untreated controls in proliferation assay; assay type: functional; details: read-out: ID50 (the source's name)
[49] = system: Human alphaherpesvirus 2; experiment: Number of survivors per number of HSV-2 infected mice treated with 7.8 mg/Kg/day; 5/10; assay type: functional, herpes simplex virus
[50] = system: Murid betaherpesvirus 1; experiment: Number of survivors per number of systemic MCMV infected mice treated with 33.4 mg/kg/day; 13/15; assay type: functional
[51] = system: Human alphaherpesvirus 2; experiment: In vitro antiviral activity tested against herpesvirus, HSV-2, MS strain by plaque reduction assay in human foreskin fibroblasts; assay type: functional
[52] = read-out: ED50 (the source's name)
[53] = read-out: ID50 (the source's name)

Compound: Nc1ncnc2c1ncn2[C@H]1CC[C@@H](CO)O1
- Protection [1]: 99%
- Protection [2]: 100%
- Protection [3]: 69%
- Protection [4]: 99%
- Cytotoxicity [5]: 0%
- Cytotoxicity [6]: 0%
- Cytotoxicity [7]: 8%

Compound: Nc1nc(O)c2ncn([C@@H]3C[C@H](CO)C3CO)c2n1 (some centres undefined)
- Protection [8]: 11%
- Protection [9]: 100%
- Protection [10]: 29%
- Protection [11]: 46%
- EC50 [12, 52]: 3.9 µg/mL (≈ 14.7 µM)
- IC50 [12, 53]: > 100 µg/mL
- EC50 [13, 52]: 1.2 µg/mL (≈ 4.52 µM)
- IC50 [13, 53]: > 100 µg/mL
- EC50 [14, 52]: 6.2 µg/mL (≈ 23.4 µM)
- IC50 [14, 53]: > 100 µg/mL
- EC50 [15, 52]: 4.9 µg/mL (≈ 18.5 µM)
- IC50 [15, 53]: > 100 µg/mL
- Cytotoxity [16]: 8%
- Cytotoxity [17]: 41%
- EC50 [18, 52]: 0.05 µg/mL (≈ 0.188 µM)
- IC50 [18, 53]: > 100 µg/mL
- MDD [19]: 9.3
- MDD [20]: 9.3
- Survivors / treated [21]: 4
- Survivors / treated [22]: 10
- Survivors / treated [23]: 7
- Cytotoxity [24]: 0%
- ED50 [25]: 39.8 mg/kg/day
- ED50 [26]: 1.9 mg/kg/day
- MDD [27]: 16.3
- MDD [28]: 11.2
- MDD [29]: 12.1
- Survivors / treated [30]: 8
- Survivors / treated [31]: 4
- EC50 [32, 52]: 0.07 µg/mL (≈ 0.264 µM)
- IC50 [32, 53]: > 100 µg/mL
- EC50 [33, 52]: 0.05 µg/mL (≈ 0.188 µM)
- IC50 [33, 53]: > 100 µg/mL
- Cytotoxity [34]: 83%
- EC50 [35, 52]: 0.06 µg/mL (≈ 0.226 µM)
- IC50 [35, 53]: > 100 µg/mL
- ED50 [36]: 2.2 mg/kg/day
- Survivors / treated [37]: 7
- EC50 [38, 52]: 0.1 µg/mL (≈ 0.377 µM)
- IC50 [38, 53]: > 100 µg/mL
- MDD [39]: 3.5
- MDD [40]: 5.8
- MDD [41]: 5.9
- MDD [42]: 4.5
- Survivors / treated [43]: 13
- Survivors / treated [44]: 9
- EC50 [45, 52]: 0.01 µg/mL (≈ 0.0377 µM)
- IC50 [45, 53]: 94 µg/mL (≈ 354 µM)
- EC50 [46, 52]: 0.4 µg/mL (≈ 1.51 µM)
- IC50 [46, 53]: > 100 µg/mL
- EC50 [47, 52]: 0.4 µg/mL (≈ 1.51 µM)
- IC50 [47, 53]: > 100 µg/mL
- IC50 [48]: 27 µg/mL (≈ 102 µM)
- Survivors / treated [49]: 5
- Survivors / treated [50]: 13
- EC50 [51, 52]: 0.07 µg/mL (≈ 0.264 µM)
- IC50 [51, 53]: > 100 µg/mL
